Experimental data: patent US20250257332A1, “TRUNCATED AND FUSION PROTEINS” (Monash University, priority 2021, published 2025)
“Also recorded” adds a separate entry of the source.

Tests used:
C2C12 myoblasts = assay: C2C12 myoblast proliferation by EdU incorporation; format: cell-based, mouse; settings: for effect on NAMPT-induced increase in myoblast proliferation: co-administration with NAMPT
Protocol: FIG. 2. […] In vitro assay assessing the effects of exogenously introduced factors on C2C12 myoblast proliferation. Proliferation is identified by EdU incorporation. […] Mean+S.D. Two-way ANOVA with Tukey's multiple comparison test. […] Mean±SEM
The mouse muscle cell line C2C12 (Yaffe, D. & Saxel, O. Serial passaging and differentiation of myogenic cells isolated from dystrophic mouse muscle. Nature 270, 725 (1977) were cultured in growth media (Dulbecco's Modified Eagle Medium (4.5 g/l D-Glucose, No L Glutamine, No Sodium Pyruvate (Gibco))+20% Fetal Bovine Solution-One Shot (Gibco)+1% Glut Max 100×(Gibco)). Cells were maintained at 37° C., 5% CO2. Cells at 70% confluence, passage 8 were extracted from T75 flasks with 0.025% Tryspin EDTA (Gibco), neutralised in growth media, spun at 180×g for 5 min to pellet cells. The cells were then resuspended in 10 ml of fresh growth media. 500 μl of cells were plated on a 8-well on cover glass II (Sarstedt) chamber slide at a density of 1×10^3 cells/ml. Cells were left 4 h at 37° C. to re-attach. For drug treatments, the media were supplemented with appropriate doses and cultured for 6 h.

[1] = test system: C2C12 murine myoblast cells; assay: C2C12 cell proliferation, CyQuant Proliferation Assay kit; format: cell-based, mouse; settings: 20 nM, 48 hours, compared with full-length NAMPT
Protocol: FIG. 7. Human NAMPT variants stimulate muscle progenitor proliferation. C2C12 mouse myoblasts were treated with 20 nM full length NAMPT (NAMPT) or NAMPT variants for (NAMPTxxx-xxx, where xxx are amino acid numbers) 48 hours. Quantification of cell proliferation was performed using CyQuant Proliferation Assay kit. […] Box and whiskers denote median with minimum and maximum values. n=4-5 independent experiments per protein. Statistical significance is indicated as exact p-value. […] Significance between conditions were analysed by one-way ANOVA with Tukey post-hoc test.
Human NAMPTcif (hNAMPTcif) and truncated variants of hNAMPTcif were designed by progressively removing N-terminal regions containing positively charged amino acids. Four truncations were produced and numbered T1 to T4. […] Quantification of proliferation was performed using commercially-available CyQuant Proliferation Assay kit (Thermo Fisher Scientific) according to manufacturer's instructions and read using a Synergy H1 plate reader (BioTek). […]
The heparin-binding sequence of placenta growth factor 2 (PIGF2) was fused to the N-terminus of NAMPTcif and produced using a bacterial expression system. […] Quantification of proliferation was performed using commercially-available CyQuant Proliferation Assay kit (Thermo Fisher Scientific) according to manufacturer's instructions and read using a Synergy H1 plate reader (BioTek). […]

[2] = test system: volumetric muscle loss injury of the rectus femoris muscle
Protocol: Injury: male C57BL/6J mice aged between 10-12 weeks were anesthetised and shaved on the hind left leg. A unilateral incision measuring approximately 1 cm was made exposing the underlying fascia. The left hind limb was extended and exteriorised via the incision site by retracting the surrounding tissue. A 3×4 mm full thickness segment of the rectus femoris muscle was removed. Directly after, the injury site was filled with fibrin hydrogel with or without 200 ng or 500 ng of hrNAMPT (1) (hydrogel components; 40 μl, 8 mg/ml human fibrinogen (FIB3, Enzyme Research Laboratories), 4 U/ml bovine thrombin (T4648, Sigma), 5 mM CaCI2, 17 μg/ml of aprotinin (ab146286, Abcam)) which polymerized in the defect. Then, the soft tissue was closed with stitches.
Histology: 10 days after treatment, animals were sacrificed and the wounds were harvested for histological analysis. The defect site and associated proximal and distal segment of the quadriceps muscle (including the rectus femoris, vastus medialis and vastus lateralis) were excised and embedded. Histological analysis was performed on serial paraffin sections (4 μm sections collected passing the central portion of the wound). Multiple sections were stained with Masson's Trichrome (to detect collagen deposition) and the extent of fibrosis (represented by a blue stain) was measured by histomorphometric analysis using ImageJ software (version 1.51 h, National Institutes of Health, USA). To maintain uniformity between samples, the length of the vastus medialis taken at multiple depths ranging from 1.0 mm-3.0 mm serves as a reference between tissue sections to determine the depth of sectioning. For fibrotic quantification, average muscle fibrosis area at each depth was scored and normalised with the area of the rectus femoris. Total area of muscle is determined by calculating the average area of rectus femoris at each depth.
Immune cell profiling and PAX7+ cell quantification with flow cytometry: 4, 6 or 8 days after treatment with either 0.5 μg of hrNAMPT (1) delivered by fibrin hydrogel or control fibrin hydrogel only, mice were euthanised via CO2 asphyxiation. The defect site and associated proximal and distal segment of the quadricep muscles were isolated and placed into 890 μl of complete RPMI (with 10% FBS and 2 mM Glutamax, Life Technologies). The tissue was minced with surgical scissors and 100 μl of 10 mg/ml Collagenase II (Sigma-Aldrich) and 10 μl of 10 mg/ml DNAse I (Biolabs), while 100 μl of dispase II (10 mg/ml) was added into the digestion for PAX7 acquisition. The mixture was vortexed and incubated at 37° C. for 45 min. The collagenase was then inactivated with 500 μl ice-cold PBS, 5% FBS, 5 mM EDTA. The mixture was strained subsequently through 70 μm and 40 μm filters. The cell suspension was further diluted with 1 ml complete RPMI and centrifuged for 10 min at 300×g. The supernatant was discarded and the pellet was resuspended in 250 μl complete RPMI and aliquoted into wells of a 96-well U bottom plate for antibody staining. The cell solutions were centrifuged, supernatant discarded, and washed with PBS. The cell viability stain used was 100 μl of Zombie Aqua (Biolegend) Live-Dead dye diluted in PBS (1:400 dilution) and incubated for 30 min at 4° C. The cells were then blocked with FcX (anti-CD16/32 antibodies, Biolegend, 1 μg/ml) flow cytometry buffer (PBS, 5% FBS). The cells were kept for 20 min at 4° C., washed with flow cytometry buffer and centrifuged. […] For internal Foxp3 staining in the T cell panel, cells were fixed with 100 μl fixation/permeabilisation solution (42080, Biolegend) for 35 min. Then cells were washed and resuspended in 100 μl of flow cytometry buffer with 0.5% Saponin and 5 μg/ml anti-Foxp3 (clone 3G3, #35-5773-U100) for 45 min. Cells were then resuspended in flow cytometry buffer (100 μl) and acquired on the Fortessa x20 (Beckman Coulter). […] Cells were stained for 45 min on ice and washed as described above.

TLR4 = target: T1, TLR4 (Homo sapiens, UniProt O00206); assay: TLR4 signalling assay in HEK-Blue TLR4 reporter cells; format: cell-based; settings: 19 nM; 24 hours; plus 5 ug/ml polymyxin B
T1 construct: host or cells: HEK-Blue TLR4 reporter cell line
T1 sequence (O00206 24-839): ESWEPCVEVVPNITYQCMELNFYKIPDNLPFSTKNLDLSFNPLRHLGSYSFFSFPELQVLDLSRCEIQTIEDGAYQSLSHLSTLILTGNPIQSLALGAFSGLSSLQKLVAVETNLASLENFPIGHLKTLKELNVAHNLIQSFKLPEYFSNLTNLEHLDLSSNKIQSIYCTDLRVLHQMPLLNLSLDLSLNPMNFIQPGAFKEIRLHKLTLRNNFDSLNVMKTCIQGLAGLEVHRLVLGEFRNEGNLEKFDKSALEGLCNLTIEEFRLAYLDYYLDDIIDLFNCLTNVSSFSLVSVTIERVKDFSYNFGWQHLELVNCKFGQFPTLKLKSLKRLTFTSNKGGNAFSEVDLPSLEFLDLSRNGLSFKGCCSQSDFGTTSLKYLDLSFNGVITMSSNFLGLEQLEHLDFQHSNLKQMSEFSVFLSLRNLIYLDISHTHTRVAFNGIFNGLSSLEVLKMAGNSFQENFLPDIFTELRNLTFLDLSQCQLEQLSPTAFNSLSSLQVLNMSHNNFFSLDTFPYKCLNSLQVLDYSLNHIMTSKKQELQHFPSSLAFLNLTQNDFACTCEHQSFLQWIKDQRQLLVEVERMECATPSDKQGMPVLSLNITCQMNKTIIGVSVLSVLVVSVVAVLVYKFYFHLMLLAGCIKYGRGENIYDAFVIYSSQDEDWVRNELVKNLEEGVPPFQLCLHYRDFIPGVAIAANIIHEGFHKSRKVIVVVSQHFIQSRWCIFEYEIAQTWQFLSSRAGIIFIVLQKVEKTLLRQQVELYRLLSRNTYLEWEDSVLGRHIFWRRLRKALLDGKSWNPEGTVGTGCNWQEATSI
T1 sequence (Q9Y6Y9 17-160 partner limits assumed): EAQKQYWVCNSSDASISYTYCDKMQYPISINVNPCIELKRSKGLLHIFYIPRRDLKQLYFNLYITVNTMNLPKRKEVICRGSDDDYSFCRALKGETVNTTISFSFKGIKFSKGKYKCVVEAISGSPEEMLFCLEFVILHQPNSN
Protocol: TLR4 receptor activation was assayed using the HEK-Blue TLR4 reporter cell line (InvivoGen). In this cell line, TLR4 and downstream NFκB signalling induces expression and secretion of alkaline phosphatase that can be quantified via colorimetric assay. HEK-Blue cells were treated for 24 hours with 19 nM of NAMPTcif or PIGF-NAMPTcif plus 5 ug/ml polymyxin B to ensure no TLR4 activation by any trace amounts of endotoxin. TLR4 activity was reported as the equivalent amount of activation by bacterial lipopolysaccharides (LPS), thus a standard curve was generated by serial dilutions of LPS from 0.01 to 20 ng/ml. Detection of alkaline phosphatase activity was performed using a QUANTI-Blue kit (InvivoGen) according to manufacturer's instructions and plates were read using a Synergy H1 plate reader (BioTek). Data were presented as equivalent LPS concentration in ng/ml. A one-way ANOVA with Dunnett's multiple comparisons test was performed to determine statistical significance.

[3] = test system: Human primary endothelial cells derived from umbilical vein; assay: Human primary endothelial cell proliferation, CyQuant; format: cell-based; settings: 20 nM; 48 hours
Protocol: FIG. 9. Human NAMPT variants stimulate human endothelial cell proliferation. Human primary endothelial cells derived from umbilical vein were treated with 20 nM full length NAMPT (NAMPT) or NAMPT variants (NAMPTxxx-xxx, where xxx are amino acid numbers) for 48 hours. Quantification of cell proliferation was performed using CyQuant Proliferation Assay kit. […] Treatment with 10% FBS was used as a positive control. Box and whiskers denote median with minimum and maximum values. n=6 independent experiments per protein. Statistical significance is indicated as p-value and determined by one-sample t-test.
Similarly, the inventors next investigated the activity of full length NAMPT, NAMPT402-491 and NAMPT422-491 on human endothelial cell proliferation. Human endothelial cells were derived from umbilical vein and treated with 20 nM full length NAMPT (NAMPT) or NAMPT variants for 48 hours.

[4] = fibrin hydrogel delivery, 10 days post treatment
[5] = single dose 0.5 μg in fibrin hydrogel at the point of injury, 10 days post treatment, vs fibrin only

N#CN=C(NCCCCCCOc1ccc(Cl)cc1)Nc1ccncc1 [GMX1778]
effect on NAMPT-induced increase in myoblast proliferation (C2C12 myoblasts; EdU incorporation): does not impact its effect on myoblast proliferation; also recorded: did not affect the increased myoblast proliferation | effect on basal level of C2C12 proliferation (C2C12 myoblasts; drug alone, EdU incorporation): no negative effect on the basal level of C2C12 proliferation

O=C(NCC(=O)N1CC[C@H](N[C@H]2CC[C@@](O)(c3ccc(-c4ncccn4)cn3)CC2)C1)c1cccc(C(F)(F)F)c1 [PF-4136309]
effect on NAMPT-induced increase in myoblast proliferation (C2C12 myoblasts; EdU incorporation): does not hinder NAMPT's stimulatory effect on myoblast proliferation

CCCCOCCOc1ccc(-c2ccc3c(c2)/C=C(/C(=O)Nc2ccc([S@@+]([O-])Cc4cncn4CCC)cc2)CCCN3CC(C)C)cc1 [cenicriviroc]
effect on NAMPT-induced increase in myoblast proliferation (C2C12 myoblasts; EdU incorporation): abolishes NAMPT's pro-proliferative response; also recorded: proliferative response was blocked

CCL2/MCP-1: CCR2 ligand
myoblast proliferation (EdU incorporation), factor alone (C2C12 myoblasts; exogenously added factor vs control, listed as mrCCL2): failed to increase proliferative rates beyond that of the control

NAMPT422-471: Truncated hNAMPTcif, residues 422-471 of full length NAMPT, SEQ ID NO: 33 (His-tagged: SEQ ID NO: 34) (NKRSKKGRLSLHRTPAGNFVTLEEGKGDLEEYGQDLLHTVFKNGKVTKS)
cell proliferation, percentage increase vs PBS-treated control [1]: lower cellular proliferation of muscle progenitor cells compared to full-length NAMPT and the other NAMPT variants

NAMPT436-491: Truncated hNAMPTcif, residues 436-491 of full length NAMPT, SEQ ID NO: 10 (His-tagged: SEQ ID NO: 11) (PAGNFVTLEEGKGDLEEYGQDLLHTVFKNGKVTKSYSFDEIRKNAQLNIELEAAHH)
cell proliferation, percentage increase vs PBS-treated control [1]: lower cellular proliferation of muscle progenitor cells compared to full-length NAMPT and the other NAMPT variants

Nicotinamide phosphoribosyltransferase [NAMPT]
number of centrally nucleated de novo muscle fibres ([2]; 0.5 μg in fibrin, 6 days post treatment, vs fibrin only): significant increase | restoration of muscle architecture ([2]; delivered into the muscle defect via fibrin hydrogel, vs fibrin only control hydrogel): fully restore muscle architecture | fibrotic tissue (Masson's trichrome) [2, 4]: significant reduction in fibrotic tissue | regenerated muscle area (Masson's trichrome) [2, 4]: significantly increased the regenerated muscle area | decrease in average fibrotic area [2, 5]: 34.76±9.32% | increase in average muscle area [2, 5]: 3.276±0.4926 mm^2 | TLR4 activation (equivalent LPS concentration) (TLR4): activates TLR4 | endothelial cell proliferation, percentage increase vs PBS-treated control [3]: still stimulated endothelial cell proliferation above negative control

maraviroc
effect on NAMPT-induced increase in myoblast proliferation (C2C12 myoblasts; EdU incorporation): abolishes NAMPT's pro-proliferative response; also recorded: proliferative response was blocked
